In patent US8975398B2, “NAMPT inhibitors” (AbbVie Inc., priority 2012, dated 2015):

What was measured:
NAMPT = NAMPT (Homo sapiens, UniProt P43490); assay: Time-Resolved Fluorescence Resonance Energy Transfer (TR-FRET) Binding Assay of NAMPT with PRPP; conditions: 2 nM NAMPT, 2 nM probe, 200 uM PRPP and 2.5 mM ATP, equilibrated 16 hours
Procedure, shortened: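 Binding measured by TR-FRET after a 16-hour equilibration meant to permit enzymatic compound modification. Substrates present at 200 uM PRPP and 2.5 mM ATP, with 2 nM enzyme, 2 nM probe, 1 nM Tb-anti-His antibody and 2% DMSO final.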

[1] = biological target: NAMPT (human, recombinant, C-terminally His-tagged) (Homo sapiens, UniProt P43490); assay: Time-Resolved Fluorescence Resonance Energy Transfer (TR-FRET) Binding Assay of NAMPT; conditions: 6.8 nM NAMPT, 200 nM probe, equilibrated 3 hours, absence of substrates
Chain of NAMPT (human, recombinant, C-terminally His-tagged) (P43490 whole entry): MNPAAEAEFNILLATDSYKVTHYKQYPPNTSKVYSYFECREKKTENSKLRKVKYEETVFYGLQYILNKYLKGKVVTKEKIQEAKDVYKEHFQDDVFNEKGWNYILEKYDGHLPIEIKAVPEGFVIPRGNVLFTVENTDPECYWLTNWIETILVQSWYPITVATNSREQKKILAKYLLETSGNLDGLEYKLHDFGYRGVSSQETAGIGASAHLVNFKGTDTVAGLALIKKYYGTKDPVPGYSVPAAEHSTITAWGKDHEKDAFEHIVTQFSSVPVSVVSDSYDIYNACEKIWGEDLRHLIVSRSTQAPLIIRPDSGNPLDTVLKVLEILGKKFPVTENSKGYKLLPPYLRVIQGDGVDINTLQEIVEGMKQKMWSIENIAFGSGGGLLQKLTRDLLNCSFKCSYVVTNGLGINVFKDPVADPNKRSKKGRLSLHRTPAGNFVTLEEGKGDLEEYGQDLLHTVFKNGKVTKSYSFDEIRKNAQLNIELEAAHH
Procedure, shortened: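 Probe displacement measured by TR-FRET (Ex 337 nm; 520/495 nm ratio) after 3 h room-temperature equilibration of compound with 6.8 nM His-tagged human NAMPT, 1 nM Tb-anti-His antibody and 200 nM Oregon Green 488 nicotinamide-site probe, pH 7.5 HEPES buffer, 2% DMSO. Control-normalized data fit four-parameter logistic for IC50.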

Chain of NAMPT (P43490 whole entry): as above

Row | SMILES | IC50 (NAMPT) | IC50 [1]
1 | COCCOCC(=O)N1CCC(c2ccc(NC(=O)C3CN(c4cccnc4C)C3)cc2)CC1 [Example 183, N-(4-{1-[(2-methoxyethoxy)acetyl]piperidin-4-yl}phenyl)-1-(2-methylpyridin-3-yl)azetidine-3-carboxamide] | 185 nM | 1040 nM
2 | O=C(Nc1ccc(OC2CCN(C(=O)CCC(F)(F)F)CC2)cc1)C1CN(c2cccnc2)C1 [Example 51, 1-(pyridin-3-yl)-N-(4-{[1-(4,4,4-trifluorobutanoyl)piperidin-4-yl]oxy}phenyl)azetidine-3-carboxamide] | 1.17 nM | 109 nM
3 | CC(C)CCC(=O)N1CCC(Oc2ccc(NC(=O)C3CN(c4cccnc4)C3)cc2)CC1 [Example 37, N-(4-{[1-(4-methylpentanoyl)piperidin-4-yl]oxy}phenyl)-1-(pyridin-3-yl)azetidine-3-carboxamide] | 0.983 nM | 68.9 nM
4 | O=C(Nc1ccc(OC2CCN(C(=O)CC(F)(F)F)CC2)cc1)C1CN(c2cccnn2)C1 [Example 252, 1-(pyridazin-3-yl)-N-(4-{[1-(3,3,3-trifluoropropanoyl)piperidin-4-yl]oxy}phenyl)azetidine-3-carboxamide] | 1.1 nM | 238 nM
5 | COc1ccncc1N1CC(C(=O)Nc2ccc(C3CCN(C(=O)C(C)(C)O)CC3)cc2)C1 [Example 96, N-{4-[1-(2-hydroxy-2-methylpropanoyl)piperidin-4-yl]phenyl}-1-(4-methoxypyridin-3-yl)azetidine-3-carboxamide] | 282 nM | 115 nM
6 | O=C(Nc1ccc(C2CCN(C(=O)CCC(F)(F)F)CC2)cc1)C1CN(c2cccnc2)C1 [Example 112, 1-(pyridin-3-yl)-N-{4-[1-(4,4,4-trifluorobutanoyl)piperidin-4-yl]phenyl}azetidine-3-carboxamide] | 0.362 nM | 40.2 nM
7 | CC(C)CC(=O)N1CCC(Oc2ccc(NC(=O)C3CN(c4cccnc4)C3)cc2)CC1 [Example 45, N-(4-{[1-(3-methylbutanoyl)piperidin-4-yl]oxy}phenyl)-1-(pyridin-3-yl)azetidine-3-carboxamide] | 1.08 nM | 87.3 nM
8 | O=C(Nc1ccc(OC2CCN(C(=O)Cc3cc(F)cc(F)c3)CC2)cc1)C1CN(c2ccnnc2)C1 [Example 291, N-[4-({1-[(3,5-difluorophenyl)acetyl]piperidin-4-yl}oxy)phenyl]-1-(pyridazin-4-yl)azetidine-3-carboxamide] | 18.2 nM | 45.6 nM
9 | Cc1ncccc1N1CC(C(=O)Nc2ccc(C3CCN(C(=O)[C@H]4CCC(=O)N4)CC3)cc2)C1 [Example 167, 1-(2-methylpyridin-3-yl)-N-{4-[1-(5-oxo-D-prolyl)piperidin-4-yl]phenyl}azetidine-3-carboxamide] | 204 nM | 3740 nM
10 | CC(C)(C)CC(=O)N1CC(Oc2ccc(NC(=O)C3CN(c4ccnnc4)C3)cc2)C1 [Example 254, N-(4-{[1-(3,3-dimethylbutanoyl)azetidin-3-yl]oxy}phenyl)-1-(pyridazin-4-yl)azetidine-3-carboxamide] | 11.2 nM | 33.9 nM
11 | CCCN1CCC(c2ccc(NC(=O)C3CN(c4cccnc4)C3)cc2)CC1 [Example 95, N-[4-(1-propylpiperidin-4-yl)phenyl]-1-(pyridin-3-yl)azetidine-3-carboxamide] | 1.02 nM | 1360 nM
12 | O=C(Nc1ccc(OC2CCN(C(=O)C3CCOC3)CC2)cc1)C1CN(c2ccnnc2)C1 (stereo not shown) [Example 298, 1-(pyridazin-4-yl)-N-(4-{[1-(tetrahydrofuran-3-ylcarbonyl)piperidin-4-yl]oxy}phenyl)azetidine-3-carboxamide] | 61.1 nM | 192 nM
13 | CCC(C)CN1CCC(Oc2ccc(NC(=O)C3CN(c4cccnc4)C3)cc2)CC1 (stereo not shown) [Example 80, N-(4-{[1-(2-methylbutyl)piperidin-4-yl]oxy}phenyl)-1-(pyridin-3-yl)azetidine-3-carboxamide] | 0.686 nM | 1600 nM
14 | O=C(Nc1ccc(OC2CCN(C(=O)CC3CCOCC3)CC2)cc1)C1CN(c2cccnc2)C1 [Example 1, 1-(pyridin-3-yl)-N-(4-{[1-(tetrahydro-2H-pyran-4-ylacetyl)piperidin-4-yl]oxy}phenyl)azetidine-3-carboxamide] | 0.386 nM | 120 nM

Second part, the molecule after the results:

Row | IC50 (NAMPT) | IC50 [1] | SMILES
15 | 0.83 nM | 24.9 nM | C=CCCC(=O)N1CCC(c2ccc(NC(=O)C3CN(c4cccnn4)C3)cc2)CC1 [Example 331, N-{4-[1-(pent-4-enoyl)piperidin-4-yl]phenyl}-1-(pyridazin-3-yl)azetidine-3-carboxamide]
16 | 54.3 nM | 20.7 nM | Cc1ncccc1N1CC(C(=O)Nc2ccc(C3CCN(C(=O)c4ccccc4)CC3)cc2)C1 [Example 149, N-[4-(1-benzoylpiperidin-4-yl)phenyl]-1-(2-methylpyridin-3-yl)azetidine-3-carboxamide]
17 | 43.8 nM | 6.53 nM | Cc1ncccc1N1CC(C(=O)Nc2ccc(C3CCN(C(=O)c4ccccc4F)CC3)cc2)C1 [Example 150, N-{4-[1-(2-fluorobenzoyl)piperidin-4-yl]phenyl}-1-(2-methylpyridin-3-yl)azetidine-3-carboxamide]
18 | 0.761 nM | 5.05 nM | O=C(Nc1ccc(C2CCN(C(=O)c3ccccc3)CC2)cc1)C1CN(c2cccnc2)C1 [Example 26, N-[4-(1-benzoylpiperidin-4-yl)phenyl]-1-(pyridin-3-yl)azetidine-3-carboxamide]
19 | 89.8 nM | 91.5 nM | Cc1ncccc1N1CC(C(=O)Nc2ccc(C3CCN(C(=O)C4(C)CC4)CC3)cc2)C1 [Example 170, N-(4-{1-[(1-methylcyclopropyl)carbonyl]piperidin-4-yl}phenyl)-1-(2-methylpyridin-3-yl)azetidine-3-carboxamide]
20 | 0.925 nM | 192 nM | O=C(Nc1ccc(OC2CCN(C(=O)Cc3cccc(C(F)(F)F)c3)CC2)cc1)C1CN(c2cccnn2)C1 [Example 240, 1-(pyridazin-3-yl)-N-{4-[(1-{[3-(trifluoromethyl)phenyl]acetyl}piperidin-4-yl)oxy]phenyl}azetidine-3-carboxamide]
21 | 0.728 nM | 6.18 nM | O=C(Nc1ccc(C2CCN(C(=O)c3cccc(O)c3)CC2)cc1)C1CN(c2cccnn2)C1 [Example 343, N-{4-[1-(3-hydroxybenzoyl)piperidin-4-yl]phenyl}-1-(pyridazin-3-yl)azetidine-3-carboxamide]
22 | 0.97 nM | 269 nM | O=C(Nc1ccc(OC2CCN(C(=O)c3cc(F)cc(F)c3)CC2)cc1)C1CN(c2cccnn2)C1 [Example 243, N-(4-{[1-(3,5-difluorobenzoyl)piperidin-4-yl]oxy}phenyl)-1-(pyridazin-3-yl)azetidine-3-carboxamide]
23 | 0.832 nM | 15.2 nM | O=C(Nc1ccc(C2CCN(C(=O)c3ccc(Cl)cc3Cl)CC2)cc1)C1CN(c2cccnn2)C1 [Example 362, N-{4-[1-(2,4-dichlorobenzoyl)piperidin-4-yl]phenyl}-1-(pyridazin-3-yl)azetidine-3-carboxamide]
24 | 0.578 nM | 18.2 nM | CSCC(=O)N1CCC(c2ccc(NC(=O)C3CN(c4cccnn4)C3)cc2)CC1 [Example 334, N-(4-{1-[(methylsulfanyl)acetyl]piperidin-4-yl}phenyl)-1-(pyridazin-3-yl)azetidine-3-carboxamide]
25 | 0.864 nM | 38.7 nM | CCCCCC(=O)N1CCC(c2ccc(NC(=O)C3CN(c4cccnn4)C3)cc2)CC1 [Example 321, N-[4-(1-hexanoylpiperidin-4-yl)phenyl]-1-(pyridazin-3-yl)azetidine-3-carboxamide]
26 | 0.209 nM | 13 nM | CCCCC(=O)N1CCC(c2ccc(NC(=O)C3CN(c4cccnc4)C3)cc2)CC1 [Example 98, N-[4-(1-pentanoylpiperidin-4-yl)phenyl]-1-(pyridin-3-yl)azetidine-3-carboxamide]
27 | 1.07 nM | 158 nM | CC(C)CC(=O)N1CCC(Oc2ccc(NC(=O)C3CN(c4cccnn4)C3)cc2)CC1 [Example 225, N-(4-{[1-(3-methylbutanoyl)piperidin-4-yl]oxy}phenyl)-1-(pyridazin-3-yl)azetidine-3-carboxamide]
28 | 0.441 nM | 8.46 nM | CC(C)(C)CC(=O)N1CCC(c2ccc(NC(=O)C3CN(c4cccnc4)C3)cc2)CC1 [Example 132, N-{4-[1-(3,3-dimethylbutanoyl)piperidin-4-yl]phenyl}-1-(pyridin-3-yl)azetidine-3-carboxamide]
29 | 0.359 nM | 14.9 nM | Cc1ccc(C(=O)N2CCC(c3ccc(NC(=O)C4CN(c5cccnc5)C4)cc3)CC2)s1 [Example 126, N-(4-{1-[(5-methylthiophen-2-yl)carbonyl]piperidin-4-yl}phenyl)-1-(pyridin-3-yl)azetidine-3-carboxamide]
30 | 0.843 nM | 28.6 nM | CCCC(C)C(=O)N1CCC(c2ccc(NC(=O)C3CN(c4cccnn4)C3)cc2)CC1 (stereo not shown) [Example 322, N-{4-[1-(2-methylpentanoyl)piperidin-4-yl]phenyl}-1-(pyridazin-3-yl)azetidine-3-carboxamide]
31 | 0.391 nM | 3.64 nM | O=C(Nc1ccc(C2CCN(C(=O)c3cccs3)CC2)cc1)C1CN(c2cccnc2)C1 [Example 127, 1-(pyridin-3-yl)-N-{4-[1-(thiophen-2-ylcarbonyl)piperidin-4-yl]phenyl}azetidine-3-carboxamide]
32 | 0.626 nM | 18.3 nM | CC(C)C(C)C(=O)N1CCC(c2ccc(NC(=O)C3CN(c4cccnn4)C3)cc2)CC1 (stereo not shown) [Example 326, N-{4-[1-(2,3-dimethylbutanoyl)piperidin-4-yl]phenyl}-1-(pyridazin-3-yl)azetidine-3-carboxamide]
